Test results as given in ChEMBL document CHEMBL1649270, “ST-246 inhibits in vivo poxvirus dissemination, virus shedding, and systemic disease manifestation” (2009).
Calls of active or inactive are those of the source. No cut-off for these calls is given here.

How the values were obtained:
Vaccinia virus WR [1] = assay: Antiviral activity against Vaccinia virus WR ATCC VR-1354 infected through dermal scarification route in BALB/c mouse assessed as reduction of viral load in brain at 100 mg/kg, po qd measured after 14 days postinfection by RT-PCR analysis relative to control; format: functional, organism-based; parameters: dose 100 mg/kg
Vaccinia virus WR [2] = assay: Antiviral activity against Vaccinia virus WR ATCC VR-1354 infected through intravenous route in BALB/c mouse assessed as reduction of viral load in lung at 100 mg/kg, po qd measured after 14 days postinfection by RT-PCR analysis relative to control; format: functional, organism-based; parameters: dose 100 mg/kg
Vaccinia virus WR [3] = assay: Antiviral activity against Vaccinia virus WR ATCC VR-1354 infected through subcutaneous route in BALB/c mouse assessed as reduction of viral load in lung at 100 mg/kg, po qd measured after 3 to 5 days postinfection by RT-PCR analysis relative to control; format: functional
Vaccinia virus WR [4] = assay: Antiviral activity against Vaccinia virus WR ATCC VR-1354 infected through intraperitoneal route in BALB/c mouse assessed as reduction of viral load in blood at 100 mg/kg, po qd measured after 3 days postinfection by RT-PCR analysis relative to control; format: functional, organism-based; parameters: dose 100 mg/kg
Vaccinia virus WR [5] = assay: Antiviral activity against Vaccinia virus WR ATCC VR-1354 infected through intraperitoneal route in BALB/c mouse assessed as reduction of viral load in spleen at 100 mg/kg, po qd measured after 3 days postinfection by RT-PCR analysis relative to control; format: functional, organism-based; parameters: dose 100 mg/kg
Vaccinia virus WR [6] = assay: Antiviral activity against Vaccinia virus WR ATCC VR-1354 infected through intraperitoneal route in BALB/c mouse assessed as reduction of viral load in liver at 100 mg/kg, po qd measured after 3 days postinfection by RT-PCR analysis relative to control; format: functional, organism-based; parameters: dose 100 mg/kg
Vaccinia virus WR [7] = assay: Antiviral activity against Vaccinia virus WR ATCC VR-1354 infected through intraperitoneal route in BALB/c mouse assessed as reduction of viral load in blood at 100 mg/kg, po qd measured after 5 days postinfection by RT-PCR analysis relative to control; format: functional, organism-based; parameters: dose 100 mg/kg
Vaccinia virus WR [8] = assay: Antiviral activity against Vaccinia virus WR ATCC VR-1354 infected through intraperitoneal route in BALB/c mouse assessed as reduction of viral load in spleen at 100 mg/kg, po qd measured after 5 days postinfection by RT-PCR analysis relative to control; format: functional, organism-based; parameters: dose 100 mg/kg
Vaccinia virus WR [9] = assay: Antiviral activity against Vaccinia virus WR ATCC VR-1354 infected through intraperitoneal route in BALB/c mouse assessed as reduction of viral load in liver at 100 mg/kg, po qd measured after 5 days postinfection by RT-PCR analysis relative to control; format: functional, organism-based; parameters: dose 100 mg/kg
Vaccinia virus WR [10] = assay: Antiviral activity against Vaccinia virus WR ATCC VR-1354 infected through dermal scarification route in ACAM2000 vaccinated BALB/c mouse assessed as reduction of swab virus titers at 100 mg/kg, po qd measured after 5 days postinfection by RT-PCR analysis relative to control; format: functional
Vaccinia virus WR [11] = assay: Antiviral activity against Vaccinia virus WR ATCC VR-1354 infected through percutaneous route in BALB/c mouse assessed as protection against hypothermia at 100 mg/kg, po qd for 1 to 3 days measured on day 2; format: functional, organism-based; parameters: dose 100 mg/kg
Vaccinia virus WR [12] = assay: Antiviral activity against Vaccinia virus WR ATCC VR-1354 infected through percutaneous route in BALB/c mouse assessed as protection against hypothermia at 100 mg/kg, po qd for 1 to 3 days measured on day 6; format: functional, organism-based; parameters: dose 100 mg/kg
Vaccinia virus WR [13] = assay: Antiviral activity against Vaccinia virus WR ATCC VR-1354 infected through percutaneous route in BALB/c mouse assessed as protection against hypothermia at 100 mg/kg, po qd for 5 to 14 days; format: functional, organism-based; parameters: dose 100 mg/kg
Vaccinia virus WR [14] = assay: Antiviral activity against Vaccinia virus WR ATCC VR-1354 infected through percutaneous route in BALB/c mouse assessed as inhibition of virus dissemination in spleen at 100 mg/kg, po qd for 1 day by RT-PCR analysis relative to control; format: functional
Vaccinia virus WR [15] = assay: Antiviral activity against Vaccinia virus WR ATCC VR-1354 infected through percutaneous route in BALB/c mouse assessed as inhibition of virus dissemination in spleen at 100 mg/kg, po qd for 3 days by RT-PCR analysis relative to control; format: functional
Vaccinia virus WR [16] = assay: Antiviral activity against Vaccinia virus WR ATCC VR-1354 infected through percutaneous route in BALB/c mouse assessed as reduction of viral load in spleen at 100 mg/kg, po qd for 3 days by RT-PCR analysis relative to control; format: functional
Vaccinia virus WR [17] = assay: Antiviral activity against Vaccinia virus WR ATCC VR-1354 infected through percutaneous route in BALB/c mouse assessed as inhibition of virus dissemination in liver at 100 mg/kg, po qd for 1 day by RT-PCR analysis; format: functional, organism-based; parameters: dose 100 mg/kg
Vaccinia virus WR [18] = assay: Antiviral activity against Vaccinia virus WR ATCC VR-1354 infected through subcutaneous route in BALB/c mouse assessed as protection against virus-induced systemic disease symptoms at 100 mg/kg, po qd measured after 9 days postinfection; format: functional, organism-based; parameters: dose 100 mg/kg
Vaccinia virus WR [19] = assay: Antiviral activity against Vaccinia virus WR ATCC VR-1354 infected through percutaneous route in BALB/c mouse assessed as reduction of viral load in lungs at 100 mg/kg, po qd measured after 3 days postinfection by RT-PCR analysis relative to control; format: functional
Vaccinia virus WR [20] = assay: Antiviral activity against Vaccinia virus WR ATCC VR-1354 infected through percutaneous route in BALB/c mouse assessed as reduction of viral load in blood at 100 mg/kg, po qd measured after 5 days postinfection by RT-PCR analysis relative to control; format: functional
Vaccinia virus WR [21] = assay: Antiviral activity against Vaccinia virus WR ATCC VR-1354 infected through percutaneous route in BALB/c mouse assessed as reduction of viral load in spleen at 100 mg/kg, po qd measured after 7 days postinfection by RT-PCR analysis relative to control; format: functional, organism-based; parameters: dose 100 mg/kg
Vaccinia virus WR [22] = assay: Antiviral activity against Vaccinia virus WR ATCC VR-1354 infected through percutaneous route in BALB/c mouse assessed as reduction of viral load in liver at 100 mg/kg, po qd measured after 7 days postinfection by RT-PCR analysis relative to control; format: functional, organism-based; parameters: dose 100 mg/kg
Vaccinia virus WR [23] = assay: Antiviral activity against Vaccinia virus WR ATCC VR-1354 infected through percutaneous route in BALB/c mouse assessed as reduction of viral load in liver at 100 mg/kg, po qd measured after 13 days postinfection by RT-PCR analysis relative to control; format: functional, organism-based; parameters: dose 100 mg/kg
Vaccinia virus WR [24] = assay: Antiviral activity against Vaccinia virus WR ATCC VR-1354 infected through dermal scarification route in BALB/c mouse assessed as reduction of viral load in lung at 100 mg/kg, po qd measured after 5 days postinfection by RT-PCR analysis relative to control; format: functional
Vaccinia virus WR [25] = assay: Antiviral activity against Vaccinia virus WR ATCC VR-1354 infected through dermal scarification route in BALB/c mouse assessed as reduction of viral load in blood at 100 mg/kg, po qd measured after 14 days postinfection by RT-PCR analysis relative to control; format: functional, organism-based; parameters: dose 100 mg/kg
Vaccinia virus WR [26] = assay: Antiviral activity against Vaccinia virus WR ATCC VR-1354 infected through dermal scarification route in BALB/c mouse assessed as reduction of viral load in liver at 100 mg/kg, po qd measured after 14 days postinfection by RT-PCR analysis relative to control; format: functional, organism-based; parameters: dose 100 mg/kg

For `O=C(NN1C(=O)[C@@H]2[C@@H]3C=C[C@@H]([C@H]4C[C@@H]34)[C@@H]2C1=O)c1ccc(C(F)(F)F)cc1` [TECOVIRIMAT], the Activity (Vaccinia virus WR [1]) was “Active”, the Activity (Vaccinia virus WR [2]) was “Active” and the “fold change (FC)” value (Vaccinia virus WR [3]) was 30. For the same molecule, the Activity (Vaccinia virus WR [4]) was “inactive”, the Activity (Vaccinia virus WR [5]) was “inactive” and the Activity (Vaccinia virus WR [6]) was “inactive”. The Activity (Vaccinia virus WR [7]) was “Active”, the Activity (Vaccinia virus WR [8]) was “Active” and the Activity (Vaccinia virus WR [9]) was “Active”. The “fold change (FC)” value (Vaccinia virus WR [10]) was 71, the Activity (Vaccinia virus WR [11]) was “inactive” and the Activity (Vaccinia virus WR [12]) was “Active”. For the same molecule, the Activity (Vaccinia virus WR [13]) was “Active”, the “fold change (FC)” value (Vaccinia virus WR [14]) was 17 and the “fold change (FC)” value (Vaccinia virus WR [15]) was 85. The “fold change (FC)” value (Vaccinia virus WR [16]) was 300, the Activity (Vaccinia virus WR [17]) was “inactive” and the Activity (Vaccinia virus WR [18]) was “Active”. For the same molecule, the “fold change (FC)” value (Vaccinia virus WR [19]) was 4, the “fold change (FC)” value (Vaccinia virus WR [20]) was 90 and the Activity (Vaccinia virus WR [21]) was “Active”. For the same molecule, the Activity (Vaccinia virus WR [22]) was “Active”, the Activity (Vaccinia virus WR [23]) was “Active” and the “fold change (FC)” value (Vaccinia virus WR [24]) was 18. The Activity (Vaccinia virus WR [25]) was “Active” and the Activity (Vaccinia virus WR [26]) was “Active”.
